Measurements reported in ChEMBL document CHEMBL1128971, “Pyrazolo[3,4-d]pyrimidines: C4, C6 substitution leads to adenosine A1 receptor selectivity” (Bioorg Med Chem Lett, 1996).

Assays:
[1] = molecular target: Adenosine receptors; A1 & A2a (Rattus norvegicus) (UniProt P25099+P30543); experiment: Ratio of binding affinity against adenosine A1 receptor and adenosine A2a receptor; assay type: protein assay
Adenosine receptor A2a = Adenosine receptor A2a (Rattus norvegicus, UniProt P30543); experiment: Inhibition of A2a agonist [3H]-CGS- 21680 binding to rat striatal membranes; assay type: cell membranes, Membrane
Chain of Adenosine receptor A2a (P30543 whole entry): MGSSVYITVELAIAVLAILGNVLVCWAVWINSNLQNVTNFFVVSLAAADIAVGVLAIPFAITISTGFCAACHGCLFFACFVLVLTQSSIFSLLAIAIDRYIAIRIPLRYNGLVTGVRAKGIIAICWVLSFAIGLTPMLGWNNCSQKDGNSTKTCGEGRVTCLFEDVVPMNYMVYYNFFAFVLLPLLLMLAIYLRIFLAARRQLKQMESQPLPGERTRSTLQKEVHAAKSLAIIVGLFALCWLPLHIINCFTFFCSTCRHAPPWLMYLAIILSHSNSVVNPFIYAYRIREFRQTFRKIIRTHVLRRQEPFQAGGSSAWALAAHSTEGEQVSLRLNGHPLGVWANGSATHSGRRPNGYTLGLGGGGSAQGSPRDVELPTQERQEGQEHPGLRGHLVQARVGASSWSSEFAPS

Adenosine receptor A1 = molecular target: T1, Adenosine receptor A1 (Rattus norvegicus, UniProt P25099); experiment: Inhibition of A1 agonist (R)-[3H]N 6-(phenylisopropyl) adenosine binding to membranes from rat whole brain
T1 sequence (P25099 whole entry): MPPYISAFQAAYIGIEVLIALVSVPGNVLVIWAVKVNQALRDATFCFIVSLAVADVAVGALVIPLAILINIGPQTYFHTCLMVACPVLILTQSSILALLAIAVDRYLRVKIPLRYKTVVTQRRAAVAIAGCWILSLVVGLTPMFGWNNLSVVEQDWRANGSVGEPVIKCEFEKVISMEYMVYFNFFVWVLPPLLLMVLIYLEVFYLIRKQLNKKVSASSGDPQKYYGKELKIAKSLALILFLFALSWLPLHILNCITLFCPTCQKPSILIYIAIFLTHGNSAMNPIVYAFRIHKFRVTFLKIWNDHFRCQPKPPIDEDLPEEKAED

Chain of Adenosine receptors; A1 & A2a (Rattus norvegicus) (P30543 whole entry, looked up, one chain of several): as the sequence (P30543 whole entry) above

SMILES | Ratio [1] | Ki (Adenosine receptor A2a) | Ki (Adenosine receptor A1)
CCCCC(Sc1nc(NC)c2cnn(-c3ccccc3)c2n1)C(N)=O (centres undefined) | 331 |  | 
CCCSc1nc(SC(CC)C(N)=O)nc2c1cnn2-c1ccccc1 (centres undefined) | 13000 | > 38500 nM | 29.5 nM
